Publication PMC10451632, “Site Mutation Improves the Expression and Antimicrobial Properties of Fungal Defense” (Antibiotics, 2023)
In brackets after ≈: the same amount, converted by molar mass. Entries after “also recorded” stand apart in the source; their conditions may differ. Bridge positions count the residues as written; N and C are the ends. Peptide text beside a SMILES is read from it.

Columns and labels:
[1] = system: Gram-negative bacteria such as Escherichia coli, Salmonella, and Pseudomonas aeruginosa; assay: MIC against Gram-negative bacteria; assay type: cell-based; details: Gram-negative bacteria (Table 6)
Procedure: (§1) The MIC value of PN7 against bacteria was determined by the microtiter broth dilution method. Briefly, bacteria grown to the exponential phase were diluted into MHB; subsequently, 90 μL of bacterial suspension (10^5 CFUs/mL) was mixed with 10 μL of different concentrations of PN7 in a sterilized 96-well microtiter plate (Nunc). MIC values were recorded after incubation for 16–18 h at 37 °C based on the lowest concentrations of peptides in which no visible bacterial growth was observed.

[2] = system: Staphylococcus aureus ATCC 43300; assay: microbe, parasite or virus in culture; assay type: cell-based
Procedure: The experimental operation of the expression of the Plectasin variant in P. pastoris in well plates, shaking flasks, and 5 L level fermentation was performed as referenced in previous studies. Candidates were identified through three different levels of screening. Firstly, a large number of transformants were screened through well plates to induce expression and determined by the inhibition zone assay (against S. aureus ATCC 43300). Secondly, the transformants with obvious inhibition zones were sequenced to obtain protein sequence information, then induced expression at the shake level. The supernatant was collected and purified to obtain the target protein; the anti-Staphylococcus aureus activity of the protein was detected by a MIC assay. Finally, the codons of candidate sequences were optimized, the expression vector was reconstructed, the optimal transformers were obtained, and the high-density cultivation was performed in a 5 L fermenter. The final agent was determined by high protein yield and good activity (Figure 2).
as §1

ICR mice = assay: In vivo toxicity, intraperitoneal injection; design: species or system mouse
Procedure: ICR mice (6–8 weeks old, male, n = 5 per group; Charles River, Beijing, China) were intraperitoneally injected with PN7 (10 mg/kg, body weight) for 6 days, and the changes in mice behavior and body weight were recorded. At the same time, blood and organ tissues were collected for whole-blood cell and biochemical index analysis and H.E. staining.

P. aeruginosa CICC 21630 = assay: MIC, microtiter broth dilution; assay type: cell-based, Pseudomonas aeruginosa; details: MHB, 10^5 CFUs/mL, 16–18 h at 37 °C
Procedure: as §1

[3] = 10 mg/kg daily intraperitoneal injection for 6 days, n = 5 per group

SMILES: CC[C@H](C)[C@@H]1NC(=O)[C@H](CO)NC(=O)[C@H](CCCCN)NC(=O)[C@@H]2CSSC[C@@H](C(=O)N[C@@H](Cc3ccc(O)cc3)C(=O)O)NC(=O)[C@H](CCCCN)NC(=O)[C@@H]3CSSC[C@H](NC(=O)[C@H](CCCNC(=N)N)NC(=O)CNC(=O)[C@H](CC(=O)O)NC(=O)[C@H](CC(=O)O)NC(=O)[C@H](CCC(=O)O)NC(=O)[C@H](Cc4ccc(O)cc4)NC(=O)[C@H](Cc4c[nH]c5ccccc45)NC(=O)[C@@H]4CCCN4C(=O)CNC(=O)[C@H](CC(N)=O)NC(=O)[C@@H](NC(=O)CNC(=O)[C@H](Cc4ccccc4)NC(=O)CN)CSSC[C@H](NC(=O)[C@H](Cc4ccc(O)cc4)NC(=O)CNC(=O)CNC(=O)[C@H](CCCCN)NC(=O)[C@H](Cc4ccc(O)cc4)NC(=O)CNC(=O)[C@H](CCCCN)NC1=O)C(=O)N[C@@H](C)C(=O)N[C@@H](CCCCN)C(=O)NCC(=O)NCC(=O)N[C@@H](Cc1ccccc1)C(=O)N[C@@H](C(C)C)C(=O)N3)C(=O)N[C@@H](Cc1c[nH]cn1)C(=O)N[C@@H](CC(N)=O)C(=O)N[C@@H](Cc1c[nH]cn1)C(=O)N2 [PN7] (H-GFGCNGPWYEDDGRCHNHCKSIKGYKGGYCAKGGFVCKCY-OH; disulfide 4-30, 15-37, 19-39 (inferred); N-terminus and C-terminus assumed)
- MIC [1]: over 128 μg/mL
- MIC ([2]; S. aureus 43300, purified protein induced by shaking flasks): 4 µg/mL (≈ 0.908 µM)
- MIC ([2]; microtiter broth dilution, MHB, 10^5 CFUs/mL, 16–18 h at 37 °C): 8 µg/mL (≈ 1.82 µM)
- histological morphology of mouse organs (H&E) (ICR mice; [3]): showed no difference
- murine behavior and body weight (ICR mice; [3]): did not observe a change in murine behavior or the loss of body weight
- toxicity to mice, overall (ICR mice; intraperitoneal injection for 6 d, observation 1 week): no toxicity; also recorded: no significant differences compared with the control group
- MIC (P. aeruginosa CICC 21630): >128 µg/mL
